Literature values, collected in patent US20070219250A1, “Pharmaceutical Compositions of Nateglinide” (priority 2003, published 2007).

For CC(C)[C@H]1CC[C@H](C(=O)N[C@H](Cc2ccccc2)C(=O)O)CC1 [Nateglinide], which Solubility in water is on record?
Its Solubility in water is “insoluble”.
